Test results reported in PubChem BioAssay (NCI).
Several values for one entry are separate records, joined by “and”; a condition that tells them apart may be missing. Equal values may be shown once.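 Step 1: Grow cells in 96-well plates. Step 2: Expose to compound for 48 hours at 5 concentrations. Step 3: Interpolate endpoints linearly; if unreached, use highest concentration. GI50 = concentration required for 50% inhibition of growth. TGI: concentration producing complete growth inhibition.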

Experiments:
Test in all cases: NCI tumour cell line growth inhibition, 48 h
[1] = tested on: 786-0 renal
[2] = tested on: A498 renal
[3] = tested on: A549 NSCLC
[4] = tested on: ACHN renal
[5] = tested on: BT-549 breast
[6] = tested on: CAKI-1 renal
[7] = tested on: CCRF-CEM leukemia
[8] = tested on: COLO 205 colon
[9] = tested on: DU-145 prostate
[10] = tested on: EKVX NSCLC
[11] = tested on: HCC-2998 colon
[12] = tested on: HCT-116 colon
[13] = tested on: HCT-15 colon
[14] = tested on: HOP-62 NSCLC
[15] = tested on: HOP-92 NSCLC
[16] = tested on: HS 578T breast
[17] = tested on: HT29 colon
[18] = tested on: IGROV1 ovarian
[19] = tested on: K-562 leukemia
[20] = tested on: KM12 colon
[21] = tested on: LOX IMVI melanoma
[22] = tested on: M14 melanoma
[23] = tested on: MALME-3M melanoma
[24] = tested on: MCF7 breast
[25] = tested on: MDA-MB-231 breast
[26] = tested on: MDA-MB-435
[27] = tested on: MDA-N
[28] = tested on: MOLT-4 leukemia
[29] = tested on: NCI-H226 lung
[30] = tested on: NCI-H23 lung
[31] = tested on: NCI-H460 lung
[32] = tested on: NCI-H522 lung
[33] = tested on: NCI/ADR-RES ovarian
[34] = tested on: OVCAR-3 ovarian
[35] = tested on: OVCAR-4 ovarian
[36] = tested on: OVCAR-5 ovarian
[37] = tested on: OVCAR-8 ovarian
[38] = tested on: PC-3 prostate
[39] = tested on: RPMI-8226 leukemia
[40] = tested on: RXF 393 renal
[41] = tested on: SF-268 CNS
[42] = tested on: SF-295 CNS
[43] = tested on: SF-539 CNS
[44] = tested on: SK-MEL-2 melanoma
[45] = tested on: SK-MEL-28 melanoma
[46] = tested on: SK-MEL-5 melanoma
[47] = tested on: SK-OV-3 ovarian
[48] = tested on: SN12C renal
[49] = tested on: SNB-19 CNS
[50] = tested on: SNB-75 CNS
[51] = tested on: SR leukemia
[52] = tested on: SW-620 colon
[53] = tested on: T-47D breast
[54] = tested on: TK-10 renal
[55] = tested on: U251 CNS
[56] = tested on: UACC-257 melanoma
[57] = tested on: UACC-62 melanoma
[58] = tested on: HL-60(TB) leukemia
[59] = tested on: UO-31 renal

C=CCN1C(=O)/C(=C/c2ccc(Cl)cc2)N=C1SC1OC(COC(C)=O)C(OC(C)=O)C(OC(C)=O)C1OC(C)=O (stereo not drawn)
TGI [1]: 12.6 µM
GI50 [2]: 80.5 µM and 31.1 µM
TGI [2]: > 100 µM and 73.7 µM
TGI [3]: 65.7 µM
GI50 [4]: 14.5 µM and 37.4 µM
TGI [4]: > 100 µM
TGI [5]: > 100 µM and 84.1 µM
TGI [6]: 28.3 µM and > 100 µM
TGI [7]: > 100 µM
GI50 [8]: > 89.5 µM and 31.9 µM
TGI [8]: > 100 µM
TGI [9]: > 100 µM
TGI [10]: > 100 µM
GI50 [11]: 49.7 µM and 18.9 µM
TGI [11]: > 100 µM and 42.8 µM
TGI [12]: 87.5 µM
GI50 [13]: 41.1 µM and 16 µM
TGI [13]: > 100 µM
GI50 [14]: 5.66 µM and 21.9 µM
TGI [14]: 20.6 µM and 62.6 µM
GI50 [15]: 22 µM and 3.62 µM
TGI [15]: 66.5 µM and 31.4 µM
TGI [16]: 9.79 µM
TGI [17]: > 100 µM
TGI [18]: > 100 µM
GI50 [19]: > 61.7 µM and 13.1 µM
TGI [19]: > 100 µM and 76.3 µM
TGI [20]: > 100 µM
TGI [21]: > 100 µM and 89.8 µM
TGI [22]: > 100 µM
TGI [23]: 15 µM and > 100 µM
TGI [24]: > 100 µM
GI50 [25]: 7.84 µM and 23.6 µM
TGI [25]: 43.6 µM and 80.9 µM
TGI [26]: > 66.3 µM and 64.8 µM
TGI [27]: > 100 µM
TGI [28]: > 100 µM and 43.2 µM
GI50 [29]: 9.63 µM and 21.9 µM
TGI [29]: 24.5 µM and 78 µM
TGI [30]: > 100 µM and 76.2 µM
GI50 [31]: 8.11 µM and 31.5 µM
TGI [31]: 36.2 µM and > 100 µM
TGI [32]: 17.8 µM and 42.9 µM
GI50 [33]: 11.5 µM and 31.7 µM
TGI [33]: > 100 µM
TGI [34]: > 100 µM
GI50 [35]: 4.14 µM and 16.7 µM
TGI [35]: 28.2 µM and 67.1 µM
GI50 [36]: > 66.9 µM and 32.7 µM
TGI [36]: > 100 µM
TGI [37]: 36 µM and 81.4 µM
GI50 [38]: 9.17 µM and 31 µM
TGI [38]: > 100 µM
GI50 [39]: 11.2 µM and 5.19 µM
TGI [39]: > 100 µM and 46.8 µM
GI50 [40]: 4.94 µM and 11.6 µM
TGI [40]: 19.5 µM and 47.5 µM
TGI [41]: 5.46 µM
GI50 [42]: 18.2 µM and 49.9 µM
TGI [42]: 54 µM and > 100 µM
TGI [43]: > 100 µM
GI50 [44]: 12.6 µM and 30.1 µM
TGI [44]: 34.6 µM and 95.8 µM
TGI [45]: > 100 µM
TGI [46]: > 100 µM
TGI [47]: > 61.8 µM and 65.6 µM
TGI [48]: > 100 µM
TGI [49]: 87.6 µM
GI50 [50]: 4.11 µM and 25.9 µM
TGI [50]: 13.8 µM and 81.5 µM
TGI [51]: > 100 µM and 36.6 µM
GI50 [52]: > 59.6 µM and 11.1 µM
TGI [52]: > 100 µM
TGI [53]: 36.9 µM
TGI [54]: > 100 µM
GI50 [55]: 5.23 µM and 30.1 µM
TGI [55]: 19.7 µM and > 100 µM
TGI [56]: 45.2 µM and 74.4 µM
GI50 [57]: 10.4 µM and 21.5 µM
TGI [57]: 35.7 µM and > 100 µM

CCOc1ccc(NC(=S)/N=C/C(C(=O)Nc2ccccc2C)=C(\C)O)cc1
TGI [1]: > 100 µM
TGI [3]: > 100 µM
TGI [4]: > 100 µM
TGI [5]: > 100 µM
TGI [6]: > 100 µM
TGI [8]: > 100 µM
TGI [9]: > 100 µM
TGI [10]: > 100 µM
TGI [11]: > 100 µM
TGI [12]: > 100 µM
TGI [13]: > 100 µM
TGI [58]: > 100 µM
TGI [14]: > 100 µM
TGI [16]: > 100 µM
TGI [17]: > 100 µM
TGI [18]: > 100 µM
TGI [19]: > 100 µM
TGI [20]: > 100 µM
TGI [21]: > 100 µM
TGI [22]: > 100 µM
TGI [24]: > 100 µM
TGI [25]: > 100 µM
TGI [26]: > 100 µM
TGI [27]: > 100 µM
TGI [28]: > 100 µM
TGI [29]: > 100 µM
TGI [30]: > 100 µM
TGI [31]: > 100 µM
TGI [32]: > 100 µM
TGI [33]: > 100 µM
TGI [34]: > 100 µM
TGI [35]: > 100 µM
TGI [36]: > 100 µM
TGI [37]: > 100 µM
TGI [38]: > 100 µM
TGI [39]: > 100 µM
TGI [40]: > 100 µM
TGI [41]: > 100 µM
TGI [42]: > 100 µM
TGI [43]: > 100 µM
TGI [44]: > 100 µM
TGI [46]: > 100 µM
TGI [47]: > 100 µM
TGI [48]: > 100 µM
TGI [49]: > 100 µM
TGI [52]: > 100 µM
TGI [53]: > 100 µM
TGI [54]: > 100 µM
TGI [55]: > 100 µM
TGI [56]: > 100 µM
TGI [57]: > 100 µM
TGI [59]: > 100 µM

Cc1ccc(S(=O)(=O)NC(=O)NS(=O)(=O)O)cc1
TGI [1]: > 100 µM
TGI [3]: > 100 µM
TGI [4]: > 100 µM
TGI [5]: > 100 µM
TGI [7]: > 100 µM
TGI [8]: > 100 µM
TGI [9]: > 100 µM
TGI [12]: > 100 µM
TGI [13]: > 100 µM
TGI [58]: > 100 µM
TGI [14]: > 100 µM
TGI [15]: > 100 µM
TGI [16]: > 100 µM
TGI [17]: > 100 µM
TGI [18]: > 100 µM
TGI [19]: > 100 µM
TGI [20]: > 100 µM
TGI [21]: > 100 µM
TGI [22]: > 100 µM
TGI [23]: > 100 µM
TGI [24]: > 100 µM
TGI [25]: > 100 µM
TGI [27]: > 100 µM
TGI [28]: > 100 µM
TGI [30]: > 100 µM
TGI [31]: > 100 µM
TGI [32]: > 100 µM
TGI [33]: > 100 µM
TGI [35]: > 100 µM
TGI [36]: > 100 µM
TGI [37]: > 100 µM
TGI [38]: > 100 µM
TGI [39]: > 100 µM
TGI [40]: > 100 µM
TGI [41]: > 100 µM
TGI [43]: > 100 µM
TGI [44]: > 100 µM
TGI [45]: > 100 µM
TGI [46]: > 100 µM
TGI [47]: > 100 µM
TGI [48]: > 100 µM
TGI [49]: > 100 µM
TGI [50]: > 100 µM
TGI [51]: > 100 µM
TGI [52]: > 100 µM
TGI [53]: > 100 µM
TGI [54]: > 100 µM
TGI [55]: > 100 µM
TGI [56]: > 100 µM
TGI [57]: > 100 µM
TGI [59]: > 100 µM
